The values that follow come from patent US5091367A, “Analogs of gonadoliberin with improved solubility, methods for their preparation, agents containing them and their use” (Hoechst Aktiengesellschaft, priority 1986, dated 1992).

In data set [1] the test system is Serum testosterone. Nature of the data set: serum testosterone after Gn-RH antagonist (Table 2). The conditions noted are these: untreated control 3.63 ± 0.59. It counts as in vivo. The source says: The Gn-RH antagonists according to the invention have an inhibitory effect on the formation of lutropin and follitropin and, as a result, also on the synthesis of testosterone and estrogen (see Table 2). They can be employed as high-dose Gn-RH […] in gonadotropin- and steroid-dependent diseases.

In data set [2] the test system is rat super-ovulation. The data set is described as follows: biological activity in rat super-ovulation. In kind it is in vivo.
The nature of data set [3]: solubility in a neutral buffer used for nasal application. The conditions noted are these: well compatible neutral buffer as used for nasal application of protirelin.

As for “Ac-D-Nal-p-Cl-D-Phe-D-Trp-Ser-Arg-D-Ser(α-L-Rha)-Leu Arg-Pro-Azagly-NH2”, the Serum testosterone in data set [1] is 2.27 ± 0.28 ng/mL.

Turning to “Ac-D-Nal-p-Cl-D-Phe-D-Trp-Ser-His-D-Ser(α-L-Rha)-Leu-Arg-Pro-Azagly-N H2”, the Serum testosterone in data set [1] was found to be 1.34 ± 0.17 ng/mL.

Take “Ac-D-Nal-p-Cl-D-Phe-D-Trp-Ser-Tyr-D-Ser(α-L-Rha)-Leu-Arg-Pro-Azagly-N H2”: the Serum testosterone in data set [1] came out at 2.30 ± 0.47 ng/mL.

As for “Pgl-His-Trp-Ser-Tyr-D-Trp-Ser(Ac-α-L-Rha)-Arg-Pro-NH-C2 H5”, the “ED20-50 Super-ovul.” value in data set [2] is given as greater than 24 ng/rat. The “Solubility in neutral nasal buffer” value in data set [3] turned out to be 500 µg/mL.

On to “Pgl-His-Trp-Ser-Tyr-D-Trp-Ser(Ac-β-D-Glc)-Arg-Pro-NH-C2 H5”, for which the “ED20-50 Super-ovul.” value in data set [2] is 5 ng/rat. In addition, the “Solubility in neutral nasal buffer” value in data set [3] amounted to 2500 µg/mL.

As for “Pgl-His-Trp-Ser-Tyr-D-Trp-Ser(Ac-β-D-Xyl)-Arg-Pro-NH-C2 H5”, in data set [2], the “ED20-50 Super-ovul.” value is 6 ng/rat. Besides, the “Solubility in neutral nasal buffer” value in data set [3] was 2500 µg/mL.

On to “Pgl-His-Trp-Ser-Tyr-D-Trp-Ser(Ac-β-L-Fuc)-Arg-Pro-NH-C2 H5”, for which the “ED20-50 Super-ovul.” value in data set [2] turned out to be 200 ng/rat. Also, the “Solubility in neutral nasal buffer” value in data set [3] was found to be 10000 µg/mL.

Consider “Pgl-His-Trp-Ser-Tyr-D-Trp-Ser(D-Ara)-Arg-Pro-NH-C2 H5”, for which the “ED20-50 Super-ovul.” value in data set [2] amounted to 24 ng/rat. Also, the “Solubility in neutral nasal buffer” value in data set [3] was determined as 5000 µg/mL.

As to “Pgl-His-Trp-Ser-Tyr-D-Trp-Ser(D-Rib)-Arg-Pro-NH-C2 H5”, the “ED20-50 Super-ovul.” value in data set [2] is given as less than 24 ng/rat. Besides, the “Solubility in neutral nasal buffer” value in data set [3] worked out at 25000 µg/mL.

With “Pgl-His-Trp-Ser-Tyr-D-Trp-Ser(L-Ara)-Arg-Pro-NH-C2 H5”, the “ED20-50 Super-ovul.” value in data set [2] was determined as 48 ng/rat. Besides, the “Solubility in neutral nasal buffer” value in data set [3] was 1250 µg/mL.

For “Pgl-His-Trp-Ser-Tyr-D-Trp-Ser(α-L-Rha)-Arg-Pro-NH-C2 H5”, the “ED20-50 Super-ovul.” value in data set [2] is listed as greater than 24 ng/rat. In data set [3], the “Solubility in neutral nasal buffer” value came out at 1400 µg/mL.

Consider “Pgl-His-Trp-Ser-Tyr-D-Trp-Ser(β-D-Glc-NAc)-Arg-Pro-NH-C2 H5”, for which, in data set [2], the “ED20-50 Super-ovul.” value is given as greater than 24 ng/rat. In data set [3], the “Solubility in neutral nasal buffer” value is 125000 µg/mL.

For “Pgl-His-Trp-Ser-Tyr-D-Trp-Ser(β-D-Xyl)-Arg-Pro-NH-C2 H5”, the “ED20-50 Super-ovul.” value in data set [2] is on record as 6 ng/rat. The “Solubility in neutral nasal buffer” value in data set [3] stood at 1700 µg/mL.

With “Pgl-His-Trp-Ser-Tyr-D-Trp-Ser(β-L-Xyl)-Arg-Pro-NH-C2 H5”, the “ED20-50 Super-ovul.” value in data set [2] is recorded as 48 ng/rat. Also, the “Solubility in neutral nasal buffer” value in data set [3] amounted to 1100 µg/mL.

For the substance “Pgl-His-Trp-Ser-Tyr-D-Trp-Ser(β-Lac)-Arg-Pro-NH-C2 H5”, in data set [2], the “ED20-50 Super-ovul.” value is reported as less than 48 ng/rat. Further, the “Solubility in neutral nasal buffer” value in data set [3] amounted to 167000 µg/mL.
